Series [1] has as its system Hl-Hela cells. Put plainly: Cytotoxicity by XTT assay (treated, mock-infected cells). Particulars: read-out: TC50; Format 1; concentration that retards cell growth by 50%, mock-infected Hl-Hela cells. For orientation: Tetrazolium dyes change colour on reduction, which living cells bring about.
For series [2], the system named is HRV 14. Put plainly: Antiviral assay, XTT method, HRV 14. It counts as cell-based. Particulars: HRV 14.
For series [3], the system named is HRV 16. Put plainly: Antiviral assay, XTT method, HRV 16. It counts as cell-based. The settings on record: HRV 16.
The subject of series [4] is HRV 1A. Put plainly: Antiviral assay, XTT method, HRV 1A. It counts as cell-based.
Where [5] appears, read: Format 1, restores 50% of viral-caused decrease in cell viability.

For orientation: IC50 means the concentration that gives 50% inhibition. Low values mean inhibition by little substance, high ones a need for much substance.

The structures appear in SMILES notation. “And” between values parts separate entries of the source, which are not always exact repeats. Equal entries are not always repeated.

On to `CCCCCC(=O)c1cc(Cl)c(O)c(Cl)c1O` [SA#116], for which the CC50 in series [1] is 24 ± 6 µM. The IC50 is 13 µM in series [2] (setting [5]), 50 ± 7 µM in series [2] (Format 2), 21 µM in series [3] (Format 1) and 61 ± 37 µM in series [3] (Format 2).

With `CCCCCC(=O)c1c(OC)cc(O)c(Cl)c1O` [SA#134], the CC50 in series [1] amounted to 48 ± 6 µM. The IC50 came to 63 µM in series [2] (setting [5]), 122 ± 14 µM in series [2] (Format 2), 12 µM in series [3] (Format 1) and 13 ± 6 µM in series [3] (Format 2).

For `COc1ccc(C(=O)c2ccccc2O)c(O)c1` [compound 1], the CC50 in series [1] was found to be 50 ± 10 µM. The IC50 in series [2] (setting [5]) worked out at 16 µM; in series [2] (Format 2), 23 ± 20 µM; in series [3] (Format 2), 165 ± 134 µM.

Turning to `CC(=O)c1ccccc1O` [compound 6], in series [2] (Format 2), the IC50 turned out to be 210 ± 170 µM.

As to `CC(=O)c1ccc(O)cc1O` [compound 7], the IC50 in series [3] (Format 2) stood at 810 ± 180 µM.

Regarding `COc1cc(O)c(C(C)=O)c(OC)c1` [compound 14], the CC50 in series [1] was 780 ± 206 µM. Further, in series [3] (Format 1), the IC50 was 225 µM.

Consider `CC(=O)c1cc(Br)ccc1O` [compound 28], for which, in series [1], the CC50 stood at 1230 ± 610 µM. In addition, the IC50 stood at 6.2 µM in series [2] (setting [5]), 91 ± 62 µM in series [2] (Format 2) and 159 ± 44 µM in series [3] (Format 2).

`CC(=O)c1cc(Cl)cc([N+](=O)[O-])c1O` [compound 31]: the CC50 in series [1] worked out at 12 ± 1 µM. Moreover, the IC50 in series [2] (setting [5]) turned out to be 14 µM; in series [2] (Format 2), 11 ± 1 µM; in series [3] (Format 2), 35 ± 26 µM; in series [4] (Format 2), 80 ± 62 µM.

Take `O=Cc1c(O)cc(O)cc1O` [compound 34]: the CC50 in series [1] worked out at 410 ± 30 µM. The compound further had an IC50 in series [2] (setting [5]) of 94 µM.

Turning to `CCC(=O)c1cc(O)ccc1O` [compound 36], the CC50 in series [1] was found to be 1720 ± 660 µM. Further, the IC50 in series [2] (setting [5]) came out at 27 µM; in series [2] (Format 2) it was 32 ± 4 µM; in series [3] (Format 2), 44 ± 15 µM.

Turning to `CC(=O)c1cc(Br)cc(Br)c1O` [compound 38], in series [1], the CC50 amounted to 59 ± 4 µM. Also, the IC50 in series [2] (setting [5]) was 26 µM; in series [2] (Format 2) it was 10 ± 2 µM; in series [3] (Format 2), 6 ± 2 µM.

In turn, `CC(=O)c1cc(Cl)c(C)cc1O` [compound 41] came in with a concentration for half-maximal inhibition (IC50) in series [2] (Format 2) of 160 ± 70 µM.

Regarding `O=c1cc(-c2ccccc2)oc2cc(O)cc(O)c12` [compound 83], the midpoint of inhibition in series [2] (Format 2), the IC50, lay at 250 ± 90 µM.

Take `O=c1cc(-c2ccccc2)oc2c(Cl)c(O)c(Cl)c(O)c12` [compound 100]: the half-inhibitory concentration (IC50) in series [2] (Format 2) was 27 ± 25 µM.

As for `CCCCCC(=O)c1ccc(O)cc1O` [compound 114], the concentration for half-maximal inhibition (IC50) came out at 40 ± 30 µM in series [2] (Format 2) and 70 ± 60 µM in series [3] (Format 2).

`CCCCCC(=O)c1c(O)c(Cl)c(OC)c(Cl)c1OCC(N)=O` [compound 118]: the CC50 in series [1] is 122 ± 6 µM. Moreover, the half-maximal inhibitory concentration (IC50) came to 380 µM in series [2] (setting [5]) and 81 µM in series [4] (Format 1).

On to `CCCCCC(=O)c1c(O)cc(O)c(Cl)c1OC` [compound 125], for which the CC50 in series [1] is 50 ± 5 µM. The IC50 in series [2] (setting [5]) was 45 µM; in series [3] (Format 1) it was 60 µM.

`O=C(c1ccccc1O)c1ccccc1O` [compound 131]: the IC50 was 0.6 µM in series [2] (setting [5]); 10 µM and 10.5 µM in series [2] (Format 2); 0.5 ± 0.4 µM in series [3] (Format 2); 43 ± 9 µM in series [4] (Format 2).

As to `O=C(c1ccccc1)c1ccccc1O` [compound 136], in series [1], the CC50 came to 28 ± 2 µM. Further, the results for the IC50 in series [2] (setting [5]), in series [2] (Format 2) and in series [3] (Format 2) were 6.3 µM, 13 ± 5 µM and 6 ± 3 µM, respectively.

Consider `O=C(c1ccccc1O)c1cc(Cl)ccc1O` [compound 137], for which the IC50 in series [2] (setting [5]) was 0.6 µM; in series [4] (Format 1) it was 6.2 µM.

For the compound `O=C(c1ccccc1O)c1cc(Br)ccc1O` [compound 142], the results for the IC50 in series [2] (Format 2), in series [3] (Format 2) and in series [4] (Format 2) were 59 ± 4 µM, 27 ± 27 µM and 25 ± 12 µM, respectively.

`Cc1ccc(O)c(C(=O)c2ccccc2O)c1` [compound 143]: the IC50 in series [3] (Format 2) amounted to 8 ± 8 µM.

Take `Cc1cc(O)c(C(=O)c2ccccc2O)cc1Cl` [compound 144]: the figures for the IC50 in series [2] (Format 2) and in series [3] (Format 2) were 130 ± 40 µM and 2.1 ± 1.6 µM, respectively.

In turn, `COC(=O)c1c(O)cc(C)cc1O` [compound 147] yielded an IC50 in series [3] (Format 2) of 70 ± 50 µM.

The values above are taken from patent US6828350B1, “Modulators of cysteine protease” (Exegenics Inc., priority 1997, dated 2004).
